Assay results reported in US20050260126A1 (priority 2002, published 2005).
pIC50: −log10 of the molar value. Counter-ions that a name gives are not always drawn.

Key:
ScN2a cells = conditions: for Concentration of inhibiting cell proliferation TC: mouse
[1] = tested on: abnormal prion proteins in ScN2a cells with persistent infection of scrapie; experiment: cells; type: cell-based, mouse; conditions: for pIC50: Mus musculus, ScN2a, 96 h, read-out: Inhibitory effects on producing abnormal prion protein IC50; for Inhibitory effects on producing abnormal prion proteins (in words): ScN2a cells
[2] = Slc:ICR, mouse, not told, iv
[3] = tested on: abnormal prion proteins (kuru plaques) in brain sections of GSS patients; parameters: species or system human; conditions: GSS patient brain sections, 10-200 μM in 50% ethanol, 30 minutes
in vivo = conditions: male, Crj:CD1, mouse, iv

SMILES | Concentration of inhibiting cell proliferation TC (ScN2a cells) [µM] | pIC50 [1] | Permeability into the brain: content in Brain [2] | Permeability into the brain: content in Plasma [2] | Detection of spotted depositions of abnormal prion proteins (fluorescent signals) [3] | Inhibitory effects on producing abnormal prion proteins (in words) [1] | MTD (in vivo) [mg/kg] | TC and safety concentration margin (in words) (ScN2a cells)
CN(C)c1ccc(/C=C/c2nc3cc(F)ccc3o2)cc1 [BF-133, 2-(4-dimethylamino) styryl-5-fluoro-benzoxazole] | 50 | 8.30 | 5.5 % ID/g or ml | 1.3 % ID/g or ml | spotted fluorescent signals were observed |  |  | 
CCN(CC)c1ccc(/C=C/c2cn3cc(F)ccc3n2)cc1 [BF-136, 2-[2-(4-diethylaminophenyl)ethenyl]-6-fluoroimidazo[1,2-a]-pyridine] | 10 | 9.00 |  |  | spotted fluorescent signals were observed | highly inhibitory effects |  | 
CN(C)c1ccc(/C=C/c2ccco2)cc1 [BF-142, 2-[2-(4-dimethylamino-phenyl)ethenyl]furan] | 100 | 8.00 |  |  | spotted fluorescent signals were observed |  |  | 
CN(C)c1ccc(/C=C/c2nc3ccc(F)cc3o2)cc1 [BF-148, 2-(4-dimethylamino) styryl-6-fluoro-benzoazole] | 10 | 9.00 |  |  | spotted fluorescent signals were observed | highly inhibitory effects |  | 
CN(C)c1ccc2cc(-c3nc4cc(F)ccc4o3)ccc2c1 [BF-151, 5-fluoro-2-(6-dimethyl-aminonaphthalen-2-yl)benzoxazole] | 100 | 8.00 |  |  | spotted fluorescent signals were observed |  |  | 
CN(C)c1ccc2cc(-c3nc4cc(F)ccc4s3)ccc2c1 [BF-154, 5-fluoro-2-(6-dimethyl-aminonaphthalen-2-yl)benzothiazole] |  |  | 1.1 % ID/g or ml | 1.4 % ID/g or ml | spotted fluorescent signals were observed |  |  | 
CN(C)c1ccc(/C=C/c2nc3cc(F)ccc3s2)cc1 [BF-162, 2-(4-dimethylamino) styryl-5-fluorobenzo-thiazole] | 100 | 8.00 |  |  | spotted fluorescent signals were observed |  |  | 
CN(C)c1ccc(/C=C/c2nc3ccccc3s2)c(O)c1 [BF-192, 2-[2-(2-hydroxy-4-dimethylaminophenyl)ethenyl]benzothiazole] | >10 | 8.80 | 5.5 % ID/g or ml | 2.6 % ID/g or ml |  |  | ≥ 10 | 
CN(C)c1ccc(/C=C/c2ccc3ccccc3n2)c(O)c1 [BF-193, 2-[2-(2-hydroxy-4-dimethylaminophenyl)ethenyl]quinoline] | 10 | 8.80 | 5.2 % ID/g or ml | 2.7 % ID/g or ml |  |  | ≥ 10 | 
CNc1ccc(C=Cc2ccc3ccccc3n2)c(CF)c1 [BF-195, 2-[2-(2-fluoromethyl-4-methylaminophenyl)-ethenyl]quinoline] | 10 | 7.49 | 4.8 % ID/g or ml | 1.2 % ID/g or ml |  |  | ≥ 10 | 
CN(C)c1ncc(/C=C/c2nc3ccccc3o2)s1 [BF-197, 2-[2-(2-dimethyl-aminothiazol-5-yl)-ethenyl]benzoxazole] | 10 | 7.80 | 15 % ID/g or ml | 1.9 % ID/g or ml |  |  | ≥ 10 | 
CNc1ccc(C=Cc2ccc3ccccc3n2)c(O)c1 [BF-198, 2-[2-(2-hydroxyl-4-methylaminophenyl)-ethenyl]quinoline] | 10 | 9.10 | 9.9 % ID/g or ml | 4.7 % ID/g or ml |  |  | ≥ 10 | 
Fc1ccc(/C=C/c2nc3ccccc3o2)cc1 [BF-208, 2-[2-(4-fluorophenyl)ethenyl]benzoxazole] | >10 | 9.10 | 11.0 % ID/g or ml | 0.53 % ID/g or ml |  |  | ≥ 10 | 
CN(C)c1ncc(/C=C/c2ccc3ccccc3n2)s1 [BF-222, 2-[2-(2-dimethylthiazol-5-yl)ethenyl]quinoline] | >10 | 8.10 | 13.0 % ID/g or ml | 2.0 % ID/g or ml |  |  | ≥ 10 | 
Nc1ccc(C(=O)Nc2ccc(-c3nc4ccc(NC(=O)c5ccc(N)cc5)c(Cl)c4[nH]3)cc2)cc1 [Compound N-227, 4-[6-(N′-(4-amino-benzoyl)amino)-7-chlorobenzimidazol-2-yl]-N-(4-aminobenzoyl)aniline] | 10 | 8.00 |  |  | spotted fluorescent signals were observed |  |  | 
CN(C)c1ccc(/C=C/c2nc3ccccc3s2)cc1 [Compound N-276, 4-[2-(2-benzothiazolyl)-ethenyl]-N,N-dimethyl-benzenamine] | 50 | 8.30 |  |  | spotted fluorescent signals were observed |  |  | 
CN(C)c1ccc(/C=C/c2nc3cc4c(cc3s2)OCO4)cc1 [Compound N-277, 4-[2-(5,6-methylene-dioxy-benzothiazol-2-yl)ethenyl]-N,N-di-methylbenzenamin] | 50 | 7.30 |  |  | detection of spotted depositions of abnormal prion proteins |  |  | 
CN(C)c1ccc(/C=C/c2nc3ccccc3o2)cc1 [Compound N-282, 2-(4-dimethylamino) styrylbenzoxazole] | 50 | 7.30 | 4.0 % ID/g or ml | 0.7 % ID/g or ml | spotted fluorescent signals were observed |  |  | 
CN(C)c1ccc(-c2ccc3ccccc3n2)cc1 [Compound N-310, 2-[(4-dimethylamino)-phenyl]quinoline] | 50 | 8.30 | 15 % ID/g or ml | 1.0 % ID/g or ml | spotted fluorescent signals were observed |  |  | 
Nc1ccc(/C=C/c2nc3ccccc3[nH]2)cc1 [Compound N-398, 4-[2-(2-benzimidazolyl)-ethenyl]benzenamine sulfate] | 50 | 8.30 |  |  | spotted fluorescent signals were observed |  |  | 
COc1cc(/C=C/c2nc3ccccc3s2)cc(OC)c1 [Compound N-408, 2-[2-(3,5-dimethoxy-phenyl)ethenyl]-benzothiazole] | 100 | 8.00 |  |  | spotted fluorescent signals were observed |  |  | 
Cc1ccc2sc(/C=C/c3ccccc3C)nc2c1 [Compound N-440, 2-[2-(2-methylphenyl)-ethenyl]-5-methyl-benzothiazole] | 100 | 7.00 |  |  | spotted fluorescent signals were observed |  |  | 
Fc1ccc(/C=C/c2nc3ccccc3s2)cc1 [Compound N-453, 2-[2-(4-fluorophenyl)ethenyl]benzothiazole] | 100 | 9.00 | 5.0 % ID/g or ml | 1.4 % ID/g or ml |  | highly inhibitory effects | ≥ 10 | higher TCs, therefore higher safety concentration margins
Clc1ccccc1/C=C/c1nc2ccccc2s1 [Compound N-454, 2-[2-(2-chlorophenyl)ethenyl]benzothiazole] | 100 | 8.00 |  |  | spotted fluorescent signals were observed |  |  | 
Clc1ccc(/C=C/c2nc3ccccc3[nH]2)cc1 [Compound N-457, 2-[2-(4-chlorophenyl)ethenyl]benzimidazole] | 100 | 9.00 | 7.1 % ID/g or ml | 2.8 % ID/g or ml |  | highly inhibitory effects | ≥ 10 | higher TCs, therefore higher safety concentration margins
C(=C\c1nc2ccccc2[nH]1)/c1ccccc1 [Compound N-491, 2-styrylbenzimidazole] | 100 | 8.00 | 7.4 % ID/g or ml | 2.3 % ID/g or ml |  |  | ≥ 10 | 
